From article PMC2633172 (The FASEB Journal, 2009)
Blank lines part the entries; values can stand above or below the molecule they belong to. Bridge positions count the residues as written; N and C are the ends. Ends that are not written are not given here. * marks the point of attachment. Biotin = O=C1N[C@H]2[C@H](CS[C@H]2CCCCC(=O)*)N1

Tests used:
[1] = test system: γ-IFN stimulated U937 cells; assay: Inhibition of superoxide burst triggered by bead-peptide 33 complexes; assay type: cell-based, human; settings: soluble peptide; submaximal concentration of bead-peptide 33 complexes
[2] = test system: γ-IFN stimulated U937 cells; assay: Phagocytosis of fluorescent bead complexes by flow cytometry; assay type: cell-based, human; settings: FITC-labeled bead complexes
[3] = biological target: Human FcγRI extracellular domain (human, UniProt P12314 16-292); assay: AlphaScreen or HTRF
Sequence of Human FcγRI extracellular domain (P12314 16-292): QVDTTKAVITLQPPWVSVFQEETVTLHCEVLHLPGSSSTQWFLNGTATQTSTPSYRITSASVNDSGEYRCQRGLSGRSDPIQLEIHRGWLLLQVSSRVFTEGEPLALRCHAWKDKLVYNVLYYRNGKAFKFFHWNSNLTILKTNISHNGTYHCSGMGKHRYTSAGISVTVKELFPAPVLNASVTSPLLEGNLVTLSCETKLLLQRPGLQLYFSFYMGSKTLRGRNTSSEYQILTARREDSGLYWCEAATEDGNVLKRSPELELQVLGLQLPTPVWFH

Molecule: AQTDTSLMLPLLGSDEE [peptide 22 S4S13]
ability to prevent receptor-mediated functions triggered by multimeric peptide 33 [1]: only weakly able or unable

Molecule: TDT C LMLPLLLG C DEE (disulfide) [peptide 22]
internalized fluorescence relative to bead-IgG1 complexes ([2]; 2 h at 37°C, trypan blue quench, 10,000 cells): ≤ 2 fold
bead-peptide signal intensity in the presence of IgG1 ([2]; with IgG1 (67 μM)): reduced to background

binding result [3]: binds
Molecule: H-AQKDPCTRWAMLLGCDGEK(Biotin) (disulfide 6-15 (inferred)) [cyclic peptide 30]

binding result [3]: binds
Molecule: H-AQVNSCLLLPNLLGCGDDK(Biotin) (disulfide 6-15 (inferred)) [cyclic peptide 33]
